These results are taken from patent US20250145635A1, “COMPOUND CONTAINING BIS(AZANYLYLIDENE) SULFONYL STRUCTURE AND USE THEREOF IN MEDICINE” (SCINNOHUB PHARMACEUTICAL CO., LTD., priority 2021, published 2025).

The target in assay [1] is recombinant human PKR enzyme (Homo sapiens (Human), UniProt P30613). Kind of assay: Pyruvate kinase (PKR) activity experiment. Type of assay: biochemical. The note with it: activation of recombinant human PKR enzyme. As for the experimental part:
• 1). A recombinant human PKR enzyme solution was formulated at a concentration of 60 ng/well (a 20 μL reaction system), and 5 μL of the solution was added into each well of a black transparent bottom 384-well plate. • 2). Compound solutions were formulated at different concentrations, with the final concentrations of 1000/300/100 nM (containing 1% DMSO). Each 5 μL of the compound solution was added into the plate in item 3.1 and mixed well. The plate was incubated at room temperature for 10 min. • 3). A reaction system was formulated according to the instructions of a kit (as shown in the table below), and 10 μL of the reaction system was added into each well of the 384-well plate, and mixed uniformly with the solution in item 3.2.
• 4). The 384-well plate was placed on a microplate reader to detect the fluorescence value at 540/590 nm, where the value was read every 2 minutes and the detection was conducted continuously for 1 hour. • 5). The Slope value within the detection time was calculated, and the 0.1% DMSO well was used as a control well to calculate a compound activation rate.
[formula] • 6). Fitting dose-effect curve
With the log value of the compound concentration as the X axis and the percentage activation rate as the Y axis, a dose-effect curve was fitted with the log(agonist) vs. response-variable slope of the analysis software GraphPad Prism 5, and the AC50 value of the activity of each compound against PKR was obtained.

Another assay addresses USP9X (Homo sapiens (Human), UniProt Q93008). Kind of assay: USP9X enzyme activity experiment. The note with it: inhibition of USP9X enzyme, Ub-Rho 110 substrate. Format: biochemical. As for the experimental part: • 1). A 1× analysis buffer was formulated, consisting of a modified Tris buffer (pH 7.5). • 2). Compound solutions of different concentrations were formulated with final concentrations of 3,000/1,000/300/100/30/10/3/1 nM (containing 1% DMSO), and added into a 384-well plate. • 3). A USP9X enzyme solution was formulated with the 1× analysis buffer. • 4). 10 μL of the USP9X enzyme solution was added into the 384-well plate, and incubated with the compounds at room temperature for 1 h. • 5). Rhodamine 110 Protein was added into the 1× analysis buffer to formulate a substrate working solution. • 6). 10 μL of the substrate solution was added into each reaction well, centrifuged for 30 s, and mixed uniformly for 30 s. • 7). The 384-well plate was placed on a microplate reader for detection, with an excitation wavelength of 480 nm and an emission wavelength of 540 nm. Test was conducted for 30 minutes and the data was collected. • 8. Fitting the dose-effect curve.
With the log value of the compound concentration as the X axis and the percentage inhibition rate as the Y axis, a dose-effect curve was fitted with the log(inhibitor) vs. response-variable slope of the analysis software GraphPad Prism 5, and the IC50 value of the activity of each compound against USP9X was obtained.

Some results are limits rather than exact numbers.

USP9X, sequence (Q93008 whole entry): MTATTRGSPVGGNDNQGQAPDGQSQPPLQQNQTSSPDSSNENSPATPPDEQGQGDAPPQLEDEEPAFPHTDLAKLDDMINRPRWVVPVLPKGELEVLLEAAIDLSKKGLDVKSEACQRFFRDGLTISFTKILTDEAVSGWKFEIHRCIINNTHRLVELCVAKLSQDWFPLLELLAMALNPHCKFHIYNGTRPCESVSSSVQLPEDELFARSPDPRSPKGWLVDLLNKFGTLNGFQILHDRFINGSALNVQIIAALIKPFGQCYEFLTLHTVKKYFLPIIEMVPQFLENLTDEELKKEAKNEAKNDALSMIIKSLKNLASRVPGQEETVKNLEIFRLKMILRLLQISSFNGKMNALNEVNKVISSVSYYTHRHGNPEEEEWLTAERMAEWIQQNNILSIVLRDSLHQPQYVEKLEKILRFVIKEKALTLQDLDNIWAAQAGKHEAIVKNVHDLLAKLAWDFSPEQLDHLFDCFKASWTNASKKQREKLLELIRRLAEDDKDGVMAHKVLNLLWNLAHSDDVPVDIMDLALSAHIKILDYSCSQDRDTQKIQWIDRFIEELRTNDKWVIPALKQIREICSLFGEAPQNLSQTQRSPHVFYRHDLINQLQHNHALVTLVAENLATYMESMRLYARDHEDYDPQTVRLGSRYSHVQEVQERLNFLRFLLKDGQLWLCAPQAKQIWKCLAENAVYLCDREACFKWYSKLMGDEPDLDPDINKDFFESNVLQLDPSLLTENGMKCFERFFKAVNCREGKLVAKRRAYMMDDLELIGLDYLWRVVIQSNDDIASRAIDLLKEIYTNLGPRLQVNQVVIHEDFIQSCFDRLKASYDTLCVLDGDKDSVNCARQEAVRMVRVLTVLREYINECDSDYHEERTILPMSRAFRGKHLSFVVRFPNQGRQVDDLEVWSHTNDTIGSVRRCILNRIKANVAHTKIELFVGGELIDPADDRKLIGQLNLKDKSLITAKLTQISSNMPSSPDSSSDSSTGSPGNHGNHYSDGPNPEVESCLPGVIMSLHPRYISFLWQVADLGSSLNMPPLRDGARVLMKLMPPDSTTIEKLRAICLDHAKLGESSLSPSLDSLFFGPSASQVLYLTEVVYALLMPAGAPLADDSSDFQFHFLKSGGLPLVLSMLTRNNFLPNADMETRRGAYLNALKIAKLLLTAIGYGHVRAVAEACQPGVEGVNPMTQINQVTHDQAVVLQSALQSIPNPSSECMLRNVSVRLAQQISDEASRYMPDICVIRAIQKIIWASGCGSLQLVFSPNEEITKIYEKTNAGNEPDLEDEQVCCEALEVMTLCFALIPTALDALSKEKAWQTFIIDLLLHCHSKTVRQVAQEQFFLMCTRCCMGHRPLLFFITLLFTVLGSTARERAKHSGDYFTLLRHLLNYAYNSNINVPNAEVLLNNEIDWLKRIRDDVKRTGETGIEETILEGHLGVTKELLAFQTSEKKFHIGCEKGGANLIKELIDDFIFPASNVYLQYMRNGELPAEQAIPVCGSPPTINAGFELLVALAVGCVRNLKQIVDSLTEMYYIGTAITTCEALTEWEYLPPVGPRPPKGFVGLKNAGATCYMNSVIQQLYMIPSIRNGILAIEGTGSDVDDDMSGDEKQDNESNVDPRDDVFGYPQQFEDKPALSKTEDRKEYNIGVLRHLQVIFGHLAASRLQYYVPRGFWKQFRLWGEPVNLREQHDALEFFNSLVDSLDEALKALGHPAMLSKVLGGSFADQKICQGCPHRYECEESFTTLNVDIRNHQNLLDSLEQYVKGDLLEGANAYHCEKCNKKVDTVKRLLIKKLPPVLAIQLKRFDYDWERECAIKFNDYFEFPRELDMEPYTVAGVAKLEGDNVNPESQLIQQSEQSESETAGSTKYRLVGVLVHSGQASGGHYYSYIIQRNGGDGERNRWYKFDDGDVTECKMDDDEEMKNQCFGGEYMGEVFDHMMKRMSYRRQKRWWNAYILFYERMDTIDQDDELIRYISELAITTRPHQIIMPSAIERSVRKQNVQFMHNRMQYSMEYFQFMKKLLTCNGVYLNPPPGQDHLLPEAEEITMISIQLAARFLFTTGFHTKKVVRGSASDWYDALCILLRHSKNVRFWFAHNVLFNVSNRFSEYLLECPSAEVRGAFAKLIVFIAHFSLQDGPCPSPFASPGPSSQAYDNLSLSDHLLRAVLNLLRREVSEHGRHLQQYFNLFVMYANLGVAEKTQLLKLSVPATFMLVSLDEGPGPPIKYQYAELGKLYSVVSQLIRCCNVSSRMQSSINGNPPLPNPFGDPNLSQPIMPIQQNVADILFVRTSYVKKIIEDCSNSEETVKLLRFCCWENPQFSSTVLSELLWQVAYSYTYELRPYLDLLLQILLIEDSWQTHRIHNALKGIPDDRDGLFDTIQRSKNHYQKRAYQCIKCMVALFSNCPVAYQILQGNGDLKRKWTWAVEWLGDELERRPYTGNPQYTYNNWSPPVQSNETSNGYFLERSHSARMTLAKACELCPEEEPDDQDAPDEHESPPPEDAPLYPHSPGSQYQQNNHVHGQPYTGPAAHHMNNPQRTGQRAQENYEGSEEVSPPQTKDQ
recombinant human PKR enzyme, sequence (P30613 whole entry): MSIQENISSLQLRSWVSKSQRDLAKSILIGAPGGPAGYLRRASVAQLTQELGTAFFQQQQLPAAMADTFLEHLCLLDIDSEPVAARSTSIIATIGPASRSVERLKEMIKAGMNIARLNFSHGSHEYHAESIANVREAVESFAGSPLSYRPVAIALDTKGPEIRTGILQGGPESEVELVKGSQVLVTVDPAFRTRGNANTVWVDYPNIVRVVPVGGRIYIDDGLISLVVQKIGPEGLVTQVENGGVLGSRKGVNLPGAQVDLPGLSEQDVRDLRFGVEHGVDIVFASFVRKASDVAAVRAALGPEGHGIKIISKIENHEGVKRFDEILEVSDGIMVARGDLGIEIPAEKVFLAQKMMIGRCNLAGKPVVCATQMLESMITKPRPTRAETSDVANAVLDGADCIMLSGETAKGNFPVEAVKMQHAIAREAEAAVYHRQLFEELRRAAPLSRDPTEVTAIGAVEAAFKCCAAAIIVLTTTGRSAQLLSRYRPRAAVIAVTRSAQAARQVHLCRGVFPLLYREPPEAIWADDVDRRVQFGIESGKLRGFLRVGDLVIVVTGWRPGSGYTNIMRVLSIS

Turning to `COc1ccc(S(=O)(=O)N2CC(=C3CN(C(=O)[C@H](CO)c4ccccc4)C3)C2)cc1` [Compound 5, (S)-3-hydroxy-1-(1′-((4-methoxyphenyl)sulfonyl)-1′,4′-dihydro-2H,2′H-[3,3′-diazetidinylidene]-1(4H)-yl)-2-phenylpropan-1-one], the AC50 (as a rule, the concentration at which the activity in the assay is half-maximal) in assay [1] was less than 100 nM. In addition, the IC50 (in general, the concentration that inhibits the measured activity by half) at USP9X is less than 100 nM.

Consider `O=C([C@H](CO)c1ccccc1)N1CC(=C2CN(S(=O)(=O)c3ccccn3)C2)C1` [Compound 4, (S)-3-hydroxy-2-phenyl-1-(1′-(pyridin-2-ylsulfonyl)-1′,4′-dihydro-2H,2′H-[3.3′-diazetidinylidene]-1(4H)-yl)propan-1-one], for which the AC50 in assay [1] lay in the range of 101 to 300 nM. The same compound registered an IC50 against USP9X of 101 to 300 nM.

With `O=C([C@H](CO)c1ccccc1)N1CC(=C2CN(S(=O)(=O)c3cnc4c(c3)OCCO4)C2)C1` [Compound 1, (S)-1-(1′-((2,3-dihydro-[1,4]dioxino[2,3-b]pyridin-7-yl)sulfonyl)-1′,4′-dihydro-2H,2′H-[3,3′-diazetidinylidene]-1(4H)-yl)-3-hydroxy-2-phenylpropan-1-one], in assay [1], the AC50 was in the range of 300 to 1000 nM. The same compound yielded an IC50 at USP9X of less than 100 nM.

In the case of `O=C([C@H](CO)c1ccccc1)N1CC(=C2CN(S(=O)(=O)c3ccc4ncsc4c3)C2)C1` [Compound 3, (S)-1-(1′-(benzo[d]thiazol-6-ylsulfonyl)-1′,4′-dihydro-2H,2′H-[3,3′-diazetidinylidene]-1(4H)-yl)-3-hydroxy-2-phenylpropan-1-one], in assay [1], the AC50 was less than 100 nM. Moreover, the IC50 against USP9X lay in the range of 300 to 1000 nM.

Turning to `O=C(C(CO)c1ccccc1)N1CC(=C2CN(S(=O)(=O)c3ccc(OC(F)F)cc3)C2)C1` (stereo not drawn) [Compound 6, 1-(1′-((4-(difluoromethoxy)phenyl)sulfonyl)-1′,4′-dihydro-2H,2′H-[3,3′-diazetidinylidene]-1(4H)-yl)-3-hydroxy-2-phenylpropan-1-one], the 50% inhibitory concentration (IC50) on USP9X was in the range of 101 to 300 nM.

With `O=C([C@H](CO)c1ccccc1)N1CC(=C2CN(S(=O)(=O)c3cc(F)c4c(c3)OCCO4)C2)C1` [Compound 20, (S)-1-(1′-((8-fluoro-2,3-dihydrobenzo[b][1,4]dioxin-6-yl)sulfonyl)-1′,4′-dihydro-2H,2′H-[3,3′-diazetidinylidene]-1(4H)-yl)-3-hydroxy-2-phenylpropan-1-one], the AC50 in assay [1] was 101 to 300 nM.

Regarding `N#Cc1ccc(C(CO)C(=O)N2CC(=C3CN(S(=O)(=O)c4ccccn4)C3)C2)cc1` (stereo not drawn) [Compound 85, 4-(3-hydroxy-1-oxo-1-(1′-(pyridin-2-ylsulfonyl)-1′,4′-dihydro-2H,2′H-[3,3′-diazetidinylidene]-1(4H)-yl)propan-2-yl)benzonitrile], in assay [1], the AC50 fell in the range of 300 to 1000 nM.

On to `O=C([C@H](CO)c1ccccc1)N1CC(=C2CN(S(=O)(=O)c3cccc4cccnc34)C2)C1` [Compound 69, (S)-3-hydroxy-2-phenyl-1-(1′-(quinolin-8-ylsulfonyl)-1′,4′-dihydro-2H,2′H-[3,3′-diazetidinylidene]-1(4H)-yl)propan-1-one], for which the AC50 in assay [1] was less than 100 nM.

Consider `COc1ccc(S(=O)(=O)N2CC(=C3CN(C(=O)[C@H](CO)c4ccccc4)C3)C2)nc1` [Compound 67, (S)-3-hydroxy-1-(1′-((5-methoxypyridin-2-yl)sulfonyl)-1′,4′-dihydro-2H,2′H-[3,3′-diazetidinylidene]-1(4H)-yl)-2-phenylpropan-1-one], for which the half-maximal activity concentration (AC50) in assay [1] is less than 100 nM.

With `O=C([C@H](CO)c1ccccc1)N1CC(=C2CN(S(=O)(=O)c3ccc4c(c3)OCCO4)C2)C1` [Compound 2, (S)-1-(1′-((2,3-dihydrobenzo[b][1,4]dioxin-6-yl)sulfonyl)-1′,4′-dihydro-2H,2′H-[3,3′-diazetidinylidene]-1(4H)-yl)-3-hydroxy-2-phenylpropan-1-one], the AC50 in assay [1] was less than 100 nM. Further, on USP9X, the half-inhibitory concentration (IC50) was less than 100 nM.

Consider `O=C([C@@H](CO)c1ccc(F)cc1)N1CC(=C2CN(S(=O)(=O)c3ccc4ncsc4c3)C2)C1` [Compound 51, (R)-1-(1′-(benzo[d]thiazol-6-ylsulfonyl)-1′,4′-dihydro-2H,2′H-[3,3′-diazetidinylidene]-1(4H)-yl)-2-(4-fluorophenyl)-3-hydroxypropan-1-one], for which the AC50 in assay [1] lay in the range of 300 to 1000 nM.

For `O=C([C@H](CO)c1ccc(F)cc1)N1CC(=C2CN(S(=O)(=O)c3ccc4c(c3)OCCO4)C2)C1` [Compound 30, (S)-1-(1′-((2,3-dihydrobenzo[b][1,4]dioxin-6-yl)sulfonyl)-1′,4′-dihydro-2H,2′H—[3,3′-diazetidinylidene]-1(4H)-yl)-2-(4-fluorophenyl)-3-hydroxypropan-1-one], the AC50 in assay [1] is less than 100 nM.

Take `NC(C(=O)N1CC(=C2CN(S(=O)(=O)c3ccc(OC(F)F)cc3)C2)C1)c1cccc(C(F)(F)F)c1` (stereo not drawn) [Compound 23, 2-amino-1-(1′-((4-(difluoromethoxy)phenyl)sulfonyl)-1′,4′-dihydro-2H,2′H-[3,3′-diazetidinylidene]-1(4H)-yl)-2-(3-(trifluoromethyl)phenyl)ethan-1-one]: the AC50 in assay [1] lay in the range of 300 to 1000 nM.

With `O=C(C(CO)c1ccc(C(F)F)cc1)N1CC(=C2CN(S(=O)(=O)c3ccccn3)C2)C1` (stereo not drawn) [Compound 71, 2-(4-(difluoromethyl)phenyl)-3-hydroxy-1-(1′-(pyridin-2-ylsulfonyl)-1′,4′-dihydro-2H,2′H-[3,3′-diazetidinylidene]-1(4H)-yl)propan-1-one], the concentration at half-maximal activity (AC50) in assay [1] was less than 100 nM.

With `CNCC(C(=O)N1CC(=C2CN(S(=O)(=O)c3ccc4c(c3)OCCO4)C2)C1)c1ccc(F)c(Cl)c1OC` (stereo not drawn) [Compound 28], the AC50 in assay [1] was in the range of 300 to 1000 nM.

For `O=C(C(CO)c1ccc(F)c(Cl)c1)N1CC(=C2CN(S(=O)(=O)c3ccccn3)C2)C1` (stereo not drawn) [Compound 59, 2-(3-chloro-4-fluorophenyl)-3-hydroxy-1-(1′-(pyridin-2-ylsulfonyl)-1′,4′-dihydro-2H,2′H-[3,3′-diazetidinylidene]-1(4H)-yl)propan-1-one], the AC50 in assay [1] lay within 101 to 300 nM.
